According to the NIST ThermoML archive (doi:10.1021/acs.jced.8b00554):

Assay: xn = mol fraction of the nth substance listed
Settings: Liquid, Vibrating tube method

CCCCCCCC [octane] + CCCO
Settings | mass density [kg/m3]
353.15 K, 10010 kPa, x2 = 0.3158 | 674.1
353.15 K, 10010 kPa, x2 = 0.4411 | 682.1
353.15 K, 10010 kPa, x2 = 0.7301 | 710.33
353.15 K, 11000 kPa, x2 = 0.1631 | 668.3
353.15 K, 11000 kPa, x2 = 0.7301 | 711.46
353.15 K, 11000 kPa, x2 = 0.8823 | 735.72
353.15 K, 11010 kPa, x2 = 0.4411 | 683.25
353.15 K, 11020 kPa, x2 = 0.2111 | 670.17
353.15 K, 11020 kPa, x2 = 0.3158 | 675.25
353.15 K, 12000 kPa, x2 = 0.2111 | 671.35
353.15 K, 12000 kPa, x2 = 0.3158 | 676.4
353.15 K, 12000 kPa, x2 = 0.4411 | 684.41
353.15 K, 12000 kPa, x2 = 0.7301 | 712.61
353.15 K, 12010 kPa, x2 = 0.1631 | 669.46
353.15 K, 12020 kPa, x2 = 0.8823 | 736.81
353.15 K, 13000 kPa, x2 = 0.3158 | 677.55
353.15 K, 13010 kPa, x2 = 0.1631 | 670.56
353.15 K, 13010 kPa, x2 = 0.8823 | 737.84
353.15 K, 13020 kPa, x2 = 0.2111 | 672.46
353.15 K, 13020 kPa, x2 = 0.4411 | 685.53
353.15 K, 13020 kPa, x2 = 0.7301 | 713.71
353.15 K, 14000 kPa, x2 = 0.1631 | 671.69
353.15 K, 14000 kPa, x2 = 0.3158 | 678.66
353.15 K, 14000 kPa, x2 = 0.4411 | 686.68
353.15 K, 14000 kPa, x2 = 0.7301 | 714.83
353.15 K, 14010 kPa, x2 = 0.2111 | 673.57
353.15 K, 14010 kPa, x2 = 0.8823 | 738.9
353.15 K, 15000 kPa, x2 = 0.4411 | 687.73
353.15 K, 15000 kPa, x2 = 0.8823 | 739.94
353.15 K, 15010 kPa, x2 = 0.1631 | 672.77
353.15 K, 15020 kPa, x2 = 0.2111 | 674.7
353.15 K, 15020 kPa, x2 = 0.3158 | 679.74
353.15 K, 15020 kPa, x2 = 0.7301 | 715.89
353.15 K, 16010 kPa, x2 = 0.1631 | 673.82
353.15 K, 16010 kPa, x2 = 0.2111 | 675.76
353.15 K, 16010 kPa, x2 = 0.3158 | 680.86
353.15 K, 16010 kPa, x2 = 0.7301 | 716.98
353.15 K, 16010 kPa, x2 = 0.8823 | 740.94
353.15 K, 16020 kPa, x2 = 0.4411 | 688.85
353.15 K, 17000 kPa, x2 = 0.1631 | 674.88
353.15 K, 17000 kPa, x2 = 0.3158 | 681.92
353.15 K, 17000 kPa, x2 = 0.4411 | 689.88
353.15 K, 17010 kPa, x2 = 0.7301 | 718.02
353.15 K, 17020 kPa, x2 = 0.2111 | 676.83
353.15 K, 17020 kPa, x2 = 0.8823 | 741.94
353.15 K, 18010 kPa, x2 = 0.1631 | 675.92
353.15 K, 18010 kPa, x2 = 0.2111 | 677.86
353.15 K, 18010 kPa, x2 = 0.4411 | 690.94
353.15 K, 18010 kPa, x2 = 0.7301 | 719.02
353.15 K, 18010 kPa, x2 = 0.8823 | 742.92
353.15 K, 18020 kPa, x2 = 0.3158 | 682.96
353.15 K, 19000 kPa, x2 = 0.1631 | 676.89
353.15 K, 19010 kPa, x2 = 0.2111 | 678.87
353.15 K, 19010 kPa, x2 = 0.3158 | 683.98
353.15 K, 19010 kPa, x2 = 0.4411 | 691.96
353.15 K, 19010 kPa, x2 = 0.7301 | 720.02
353.15 K, 19010 kPa, x2 = 0.8823 | 743.88
353.15 K, 20000 kPa, x2 = 0.7301 | 721.02
353.15 K, 20000 kPa, x2 = 0.8823 | 744.83
353.15 K, 20010 kPa, x2 = 0.1631 | 677.88
353.15 K, 20010 kPa, x2 = 0.3158 | 684.96
353.15 K, 20010 kPa, x2 = 0.4411 | 692.97
353.15 K, 20020 kPa, x2 = 0.2111 | 679.82
363.15 K, 100 kPa, x2 = 0.1631 | 643.75
363.15 K, 100 kPa, x2 = 0.2111 | 645.23
363.15 K, 100 kPa, x2 = 0.3158 | 649.43
363.15 K, 100 kPa, x2 = 0.4411 | 656.74
363.15 K, 100 kPa, x2 = 0.7301 | 685.03
363.15 K, 100 kPa, x2 = 0.8823 | 711.1
363.15 K, 1000 kPa, x2 = 0.2111 | 646.4
363.15 K, 1010 kPa, x2 = 0.1631 | 644.92
363.15 K, 1010 kPa, x2 = 0.3158 | 650.63
363.15 K, 1020 kPa, x2 = 0.4411 | 658.07
363.15 K, 1020 kPa, x2 = 0.7301 | 686.21
363.15 K, 1020 kPa, x2 = 0.8823 | 712.01
363.15 K, 2000 kPa, x2 = 0.3158 | 652.01
363.15 K, 2000 kPa, x2 = 0.4411 | 659.42
363.15 K, 2000 kPa, x2 = 0.7301 | 687.5
363.15 K, 2000 kPa, x2 = 0.8823 | 713.23
363.15 K, 2010 kPa, x2 = 0.1631 | 646.32
363.15 K, 2010 kPa, x2 = 0.2111 | 647.77
363.15 K, 3000 kPa, x2 = 0.1631 | 647.65
363.15 K, 3010 kPa, x2 = 0.3158 | 653.38
363.15 K, 3010 kPa, x2 = 0.4411 | 660.78
363.15 K, 3010 kPa, x2 = 0.8823 | 714.49
363.15 K, 3020 kPa, x2 = 0.2111 | 649.11
363.15 K, 3020 kPa, x2 = 0.7301 | 688.81
363.15 K, 4010 kPa, x2 = 0.2111 | 650.5
363.15 K, 4010 kPa, x2 = 0.3158 | 654.7
363.15 K, 4010 kPa, x2 = 0.4411 | 662.14
363.15 K, 4010 kPa, x2 = 0.8823 | 715.75
363.15 K, 4020 kPa, x2 = 0.1631 | 649
363.15 K, 4020 kPa, x2 = 0.7301 | 690.17
363.15 K, 5000 kPa, x2 = 0.2111 | 651.8
